# Experimental data: US9273317B2, “Methods and compositions for inhibiting the growth and/or proliferation of MYC-driven tumor cells” (Fred Hutchinson Cancer Research Center, priority 2011, dated 2016)
# Assays:
# [1] = test system: MYCN amplified neuroblastoma xenograft (IMR32); assay: IC261 treatment of MYCN amplified neuroblastoma xenograft; type: in vivo, NOD/SCID mice
# Procedure: FIG. 3. IC261 treatment blocks MYCN amplified neuroblastoma tumor growth in vivo. a, Representative images of MYCN amplified neuroblastoma xenograft in NOD/SCID mice before and after treatment with either DMSO or IC261. Tumors were engrafted, and allowed to reach a size of about 100 mm^3, then IC261 (21.5 mg/kg) or DMSO was injected subcutaneously daily for 8 days. b, Quantitation of tumor size over the 8-day treatment regimen with either IC261 or DMSO control. Values represent mean tumor volume at each time point (n=5 for each group, error bars indicate SD). c, Immunohistochemical analysis of tumor sections from IC261 and DMSO treatment groups described in a and b. Representative images of H-E, TUNEL and BrdU staining for each group are shown. BrdU was administered 2 h before collection. d. Quantification of TUNEL positive cells and BrdU positive cells per field in DMSO or IC-261 treated xenograft tumors. Error bars indicate SD of means.
# (§1) As there is strong selection to escape lentiviral-mediated silencing of genes that are necessary for cell growth, we proceeded to evaluate a small molecule inhibitor of CSNK1e enzymatic activity, IC261^33. […] A cohort of ten xenograft bearing mice was randomized into two groups with approximate equal tumor burden; one group was treated with daily subcutaneous injection of IC261 for 8 consecutive days, while the control group was treated with DMSO vehicle only. […] Taken together, the results obtained by genetic knock-down as well as via small molecule inhibitor validate CSNK1e as a potential therapeutic target for MYCN-driven neuroblastoma.
# MYC overexpressing cells = assay: IC261 viability by CellTiter-Glo in cells with or without MYC overexpression; type: cell-based, human; settings: 48 hrs, HFF with or without c-Myc, Tet21N with or without doxycyclin, IMR-32
# Procedure: (§2) a. HFF cell lines with or without c-Myc over-expression were treated with 0-10 uM IC261 for 48 hrs. The cells were exposed to CellTiter-Glo reagent and viability was assessed by ATP-induced chemiluminescence. Values indicate mean±SD. b. Tet21N cells with or without doxycyclin treatment and IMR-32 cells (MYCN+) were treated with 0-30 uM IC261 for 48 hrs. The cells were exposed to CellTiter-Glo reagent and the viability was assessed by ATP-induced chemiluminescence. Values indicate mean±SD. c. Cell growth curves for HFF-pBabe incubated with different concentrations of IC261. d. Cell growth curves for HFF-MYC incubated with different concentrations of IC261.
# as §1
# IMR-32 cells (MYCN+) = assay: IC261 viability by CellTiter-Glo in IMR-32 cells; type: cell-based, human; settings: 0-30 uM, 48 hrs
# Procedure: as §2, §1
# HFF-pB = assay: High throughput siRNA screen, cell viability by Alamar Blue, control cells; type: cell-based, human; settings: siRNA pool (3 siRNAs/pool), day 5, average of 3 replicates, relative to median of wells transfected with siRNA to luciferase
# Procedure: FIG. 1. Identification of synthetic lethal genes with c-MYC overexpression by high throughput siRNA screening. a, Graphical schematic of the siRNA screen. HFF expressing either c-MYC or transduced with an empty retroviral vector, pB, were plated in 384 well plates. 24 hr later they were transfected with siRNA pools (3 siRNAs/pool) targeting a total of ˜3,311 genes, with one gene targeted per well. At day 5, the viability was quantified utilizing an Alamar Blue staining assay and an EnVision plate reader. b, Graphical representation of cell viability as affected by each siRNA pool in both HFF-pB or HFF-c-MYC and quantified as % relative to mock (on a log10 scale). Values represent the average viability of 3 replicates. […] Relative levels of each gene were calculated using the ΔΔCT method and using GAPDH to normalize mRNA levels within each sample. d, Viability of HFF-pBabe and HFF-Myc following stable, lentiviral based knock-down of MYC-SL genes CSNK1e, PES1 and CECR2. […] Y-axis indicates the % of cells stained with anti-γ-H2AX that scored for nuclear fluorescence levels above a negative control established threshold. Quantitation was obtained by automated microscopy in 96 well format, from triplicate samples. g, Quantitative assessment of Caspase-3 and -7 cleavage following transfection of the same siRNA pools as above (measured by the CaspaseGlo kit, Promega). […]
# HFF-MYC = assay: High throughput siRNA screen, cell viability by Alamar Blue, c-MYC overexpressing cells; type: cell-based, human
# Procedure: FIG. 1. Identification of synthetic lethal genes with c-MYC overexpression by high throughput siRNA screening. a, Graphical schematic of the siRNA screen. HFF expressing either c-MYC or transduced with an empty retroviral vector, pB, were plated in 384 well plates. 24 hr later they were transfected with siRNA pools (3 siRNAs/pool) targeting a total of ˜3,311 genes, with one gene targeted per well. At day 5, the viability was quantified utilizing an Alamar Blue staining assay and an EnVision plate reader. b, Graphical representation of cell viability as affected by each siRNA pool in both HFF-pB or HFF-c-MYC and quantified as % relative to mock (on a log10 scale). Values represent the average viability of 3 replicates. A set of siRNAs (targeting 102 genes labeled as light shaded+) caused differential loss of viability (Z score>2) in the HFF-MYC versus control pB. An additional set of siRNAs targeting 20 genes caused selective growth advantage to HFF-MYC. c, CSNK1e, PES1 and CECR2 mRNA levels following lentiviral-mediated shRNA knock-down. Relative levels of each gene were calculated using the ΔΔCT method and using GAPDH to normalize mRNA levels within each sample. d, Viability of HFF-pBabe and HFF-Myc following stable, lentiviral based knock-down of MYC-SL genes CSNK1e, PES1 and CECR2. […] Y-axis indicates the % of cells stained with anti-γ-H2AX that scored for nuclear fluorescence levels above a negative control established threshold. Quantitation was obtained by automated microscopy in 96 well format, from triplicate samples. g, Quantitative assessment of Caspase-3 and -7 cleavage following transfection of the same siRNA pools as above (measured by the CaspaseGlo kit, Promega). […]
# We employed a high throughput robotics-based approach for massive parallel testing of an arrayed siRNA library to accurately quantify the effects of siRNAs against ˜3,300 druggable genes and 200 microRNAs on the viability of HFF-MYC (stably transduced with a retroviral vector expressing c-MYC), or a control empty vector, HFF-pB^14, see FIG. 1a for schematic of the experimental set-up). […]
Compound,tumor growth ([1]; 21.5 mg/kg subcutaneously daily for 8 days),apoptosis by TUNEL staining of tumor tissue ([1]; after IC261 treatment),"BrdU labeling of tumor tissue ([1]; after IC261 treatment, BrdU 2 h before collection)","differences in IC50, MYC overexpressing versus normal or low MYC expressing cells (MYC overexpressing cells) [fold]",sensitivity to IC261 in vitro (IMR-32 cells (MYCN+)),% Viability HFF-pB (HFF-pB) [%],Z score (>than) (HFF-MYC; differential loss of viability HFF-MYC versus HFF-pB),Ratio pBabe/Myc (HFF-MYC; ratio of percent viability of a given siRNA pool in HFF-pB/HFF-MYC),"% Viability HFF-MYC (HFF-MYC; siRNA pool (3 siRNAs/pool), day 5, average of 3 replicates, relative to median of wells transfected with siRNA to luciferase) [%]"
COc1cc(OC)c(C=C2C(O)=Nc3ccccc32)c(OC)c1 [IC261],effective in halting tumor growth in all treated mice,very little apoptosis was detected,marked decrease in BrdU labeling,> 100,highly sensitive,–,–,–,–
CTPS,–,–,–,–,–,70.57,> 2.5,3.63,19.44
